From patent US8884061B2, “Compositions and methods of use of electron transport system inhibitors” (priority 2006, dated 2014)
In brackets after ≈: the same amount, converted by molar mass. Where two headings read alike, the source gives them in different places.

Legend:
M. tuberculosis H37Rv = assay: MIC, agar (7H11) dilution method; type: cell-based; settings: Mycobacterium tuberculosis, H37RV
M. tuberculosis Kurono = assay: MIC, agar (7H11) dilution method; type: cell-based; settings: Mycobacterium tuberculosis; M. tuberculosis Kurono; agar (7H11) dilution; read-out: Minimum inhibitory concentrations (MIC)
M. bovis BCG Tokyo = assay: microbe, parasite or virus in culture; type: cell-based; settings: Mycobacterium tuberculosis variant bovis BCG, BCG, read-out: Minimum inhibitory concentrations (MIC)
M. avium Flamingo = assay: MIC, agar (7H11) dilution method; type: cell-based; settings: Mycobacterium avium, read-out: Minimum inhibitory concentrations (MIC)
[1] = test system: M. intracellularae ATCC 15984; assay: MIC, agar (7H11) dilution method; type: cell-based; settings: read-out: Minimum inhibitory concentrations (MIC)
M. kansasii NIHJ1619 = assay: MIC, agar (7H11) dilution method; type: cell-based; settings: Mycobacterium kansasii, read-out: Minimum inhibitory concentrations (MIC)
M. aurum = assay: MIC, agar (7H11) dilution method; type: cell-based; settings: Mycolicibacterium aurum, read-out: Minimum inhibitory concentrations (MIC)
M. fortuitum NIHJ1615 = assay: MIC, agar (7H11) dilution method; type: cell-based; settings: Mycolicibacterium fortuitum, read-out: Minimum inhibitory concentrations (MIC)
M. smegmatis Takeo = assay: MIC, agar (7H11) dilution method; type: cell-based; settings: Mycolicibacterium smegmatis, read-out: Minimum inhibitory concentrations (MIC)
S. aureus ATCC 29213 = assay: MIC, other bacteria (Table 3); type: cell-based; settings: Staphylococcus aureus, ATCC29213, inoculum size 10^6 CFU/ml, read-out: MIC
[2] = test system: S. aureus ATCC 43300 (MRSA); assay: MIC, other bacteria (Table 3); type: cell-based; settings: Staphylococcus aureus, inoculum size 10^6 CFU/ml, read-out: MIC
VRSA 2441-T0041 = assay: MIC, other bacteria (Table 3); type: cell-based, S. aureus; settings: Staphylococcus aureus; VRSA 2441-T0041, low level VCM-resistant; inoculum size 10^6 CFU/ml; read-out: MIC
VRSA 2441-T0044 = assay: MIC, other bacteria (Table 3); type: cell-based, S. aureus; settings: Staphylococcus aureus, VRSA
MRSA 2441-05104 = assay: MIC, other bacteria (Table 3); type: cell-based, S. aureus; settings: Staphylococcus aureus, inoculum size 10^6 CFU/ml, read-out: MIC
MRSA 2441-05112 = assay: MIC, other bacteria (Table 3); type: cell-based, S. aureus; settings: Staphylococcus aureus, inoculum size 10^6 CFU/ml, read-out: MIC
MRSA 2441-05129 = assay: MIC, other bacteria (Table 3); type: cell-based, S. aureus; settings: Staphylococcus aureus, inoculum size 10^6 CFU/ml, read-out: MIC
MRSA 2441-05223 = assay: MIC, other bacteria (Table 3); type: cell-based, S. aureus; settings: Staphylococcus aureus, inoculum size 10^6 CFU/ml, read-out: MIC
MRSA 2441-05254 = assay: MIC, other bacteria (Table 3); type: cell-based, S. aureus; settings: Staphylococcus aureus, inoculum size 10^6 CFU/ml, read-out: MIC
MRSA 2441-05262 = assay: MIC, other bacteria (Table 3); type: cell-based, S. aureus; settings: Staphylococcus aureus, inoculum size 10^6 CFU/ml, read-out: MIC
[3] = test system: S. epidermidis ATCC 12228; assay: MIC, other bacteria (Table 3); type: cell-based; settings: Staphylococcus epidermidis, ATCC12228, inoculum size 10^6 CFU/ml, read-out: MIC
MRSE 2442-05030 = assay: MIC, other bacteria (Table 3); type: cell-based, S. epidermidis; settings: Staphylococcus epidermidis, inoculum size 10^6 CFU/ml, read-out: MIC
MRSE 2442-05047 = assay: MIC, other bacteria (Table 3); type: cell-based, S. epidermidis; settings: Staphylococcus epidermidis, inoculum size 10^6 CFU/ml, read-out: MIC
MRSE 2442-05053 = assay: MIC, other bacteria (Table 3); type: cell-based, S. epidermidis; settings: Staphylococcus epidermidis, inoculum size 10^6 CFU/ml, read-out: MIC
MRSE 2442-05060 = assay: MIC, other bacteria (Table 3); type: cell-based, S. epidermidis; settings: Staphylococcus epidermidis, inoculum size 10^6 CFU/ml, read-out: MIC
MRSE 2442-05110 = assay: MIC, other bacteria (Table 3); type: cell-based, S. epidermidis; settings: Staphylococcus epidermidis, inoculum size 10^6 CFU/ml, read-out: MIC
MRSE 2442-05118 = assay: MIC, other bacteria (Table 3); type: cell-based, S. epidermidis; settings: Staphylococcus epidermidis, inoculum size 10^6 CFU/ml, read-out: MIC
E. faecalis ATCC 29212 = assay: MIC, other bacteria (Table 3); type: cell-based; settings: Enterococcus faecalis, ATCC29212, inoculum size 10^6 CFU/ml, read-out: MIC
[4] = test system: E. faecalis ATCC 51299 (VRE); assay: MIC, other bacteria (Table 3); type: cell-based; settings: Enterococcus faecalis, low level VCM-resistant, Van B, inoculum size 10^6 CFU/ml, read-out: MIC
[5] = test system: E. faecalis NCTC 12201 (VRE); assay: MIC, other bacteria (Table 3); type: cell-based; settings: Enterococcus faecalis, high level VCM-resistant, Van A, inoculum size 10^6 CFU/ml, read-out: MIC
E. faecium ATCC 49224 = assay: MIC, other bacteria (Table 3); type: cell-based; settings: Enterococcus faecium, ATCC49224; E. faecium ATCC 49224, GM-resistant; inoculum size 10^6 CFU/ml; read-out: MIC
[6] = test system: E. faecium NCTC 12203 (VRE); assay: MIC, other bacteria (Table 3); type: cell-based; settings: Enterococcus faecium, high level VCM-resistant, Van A, inoculum size 10^6 CFU/ml, read-out: MIC
E. coli ATCC 25922 = assay: MIC, other bacteria (Table 3); type: cell-based; settings: Escherichia coli, ATCC25922, inoculum size 10^6 CFU/ml, read-out: MIC
K. pneumoniae ATCC 27736 = assay: MIC, other bacteria (Table 3); type: cell-based; settings: Klebsiella pneumoniae, ATCC27736, inoculum size 10^6 CFU/ml, read-out: MIC
P. mirabilis ATCC 4630 = assay: MIC, other bacteria (Table 3); type: cell-based; settings: Proteus mirabilis, ATCC4630, inoculum size 10^6 CFU/ml, read-out: MIC
S. marsascens ATCC 14756 = assay: MIC, other bacteria (Table 3); type: cell-based; settings: inoculum size 10^6 CFU/ml, read-out: MIC
P. aeruginosa ATCC 27853 = assay: MIC, other bacteria (Table 3); type: cell-based; settings: Pseudomonas aeruginosa, ATCC27853, inoculum size 10^6 CFU/ml, read-out: MIC

C=CCN(C)CCCCCCCCOc1ccc(C(O)c2ccc(Cl)cc2)c(Cl)c1 (stereo not shown) [Cpd #21, (4-(8-(allyl(methyl)amino)octyloxy)-2-chlorophenyl)(4-chlorophenyl)methanol]
MIC (M. tuberculosis H37Rv; M. tuberculosis H37Rv, table line r9 (3rd of 5 so labelled), read-out: Minimum inhibitory concentrations (MIC)): 12.5 µg/mL (≈ 27.8 µM) | MIC (M. tuberculosis H37Rv; read-out: Minimum inhibitory concentrations (MIC), M. tuberculosis H37Rv, table line r7 (1st of 5 so labelled)): 25 µg/mL (≈ 55.5 µM) | MIC (M. tuberculosis H37Rv; read-out: Minimum inhibitory concentrations (MIC), M. tuberculosis H37Rv, table line r8 (2nd of 5 so labelled)): 25 µg/mL (≈ 55.5 µM) | MIC (M. tuberculosis H37Rv; read-out: Minimum inhibitory concentrations (MIC), M. tuberculosis H37Rv, table line r10 (4th of 5 so labelled)): 25 µg/mL (≈ 55.5 µM) | MIC (M. tuberculosis H37Rv; read-out: Minimum inhibitory concentrations (MIC), M. tuberculosis H37Rv, table line r11 (5th of 5 so labelled)): 25 µg/mL (≈ 55.5 µM) | MIC (M. tuberculosis Kurono): 25 µg/mL (≈ 55.5 µM) | MIC (M. bovis BCG Tokyo): 25 µg/mL (≈ 55.5 µM) | MIC (M. avium Flamingo): > 25 µg/mL | MIC [1]: > 25 µg/mL | MIC (M. kansasii NIHJ1619): > 25 µg/mL | MIC (M. aurum): > 25 µg/mL | MIC (M. fortuitum NIHJ1615): > 25 µg/mL | MIC (M. smegmatis Takeo): > 25 µg/mL | MIC (S. aureus ATCC 29213): 100 µg/mL (≈ 222 µM) | MIC [2]: 100 µg/mL (≈ 222 µM) | MIC (VRSA 2441-T0041): > 100 µg/mL | MIC (VRSA 2441-T0044): > 100 µg/mL | MIC (MRSA 2441-05104): 50 µg/mL (≈ 111 µM) | MIC (MRSA 2441-05112): > 100 µg/mL | MIC (MRSA 2441-05129): > 100 µg/mL | MIC (MRSA 2441-05223): > 100 µg/mL | MIC (MRSA 2441-05254): > 100 µg/mL | MIC (MRSA 2441-05262): 100 µg/mL (≈ 222 µM) | MIC [3]: 50 µg/mL (≈ 111 µM) | MIC (MRSE 2442-05030): 50 µg/mL (≈ 111 µM) | MIC (MRSE 2442-05047): 50 µg/mL (≈ 111 µM) | MIC (MRSE 2442-05053): 50 µg/mL (≈ 111 µM) | MIC (MRSE 2442-05060): 50 µg/mL (≈ 111 µM) | MIC (MRSE 2442-05110): 50 µg/mL (≈ 111 µM) | MIC (MRSE 2442-05118): 50 µg/mL (≈ 111 µM) | MIC (E. faecalis ATCC 29212): 100 µg/mL (≈ 222 µM) | MIC [4]: > 100 µg/mL | MIC [5]: 100 µg/mL (≈ 222 µM) | MIC (E. faecium ATCC 49224): 50 µg/mL (≈ 111 µM) | MIC [6]: 50 µg/mL (≈ 111 µM) | MIC (E. coli ATCC 25922): > 100 µg/mL | MIC (K. pneumoniae ATCC 27736): > 100 µg/mL | MIC (P. mirabilis ATCC 4630): > 100 µg/mL | MIC (S. marsascens ATCC 14756): > 100 µg/mL | MIC (P. aeruginosa ATCC 27853): > 100 µg/mL
